Laboratory results published in ChEMBL document CHEMBL1201862, “PubChem BioAssay data set” (2004).
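Results reflect a 48-hour exposure of cells in 96-well plates to compound at five concentrations. Here, GI50 denotes the concentration required for 50% inhibition of growth.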 Activity calls are given as the source filed them. Rule as the data show it: active = GI50 up to about 1.1 µM and inactive = higher.

Tests used:
Experiment in all cases: DTP human tumour cell line panel, 48 h
LOX IMVI = system: LOX IMVI
A498 = system: A498
U-251 = system: U-251
HL-60 = system: HL-60
SR = system: SR
HCT-15 = system: HCT-15
SNB-75 = system: SNB-75
KM12 = system: KM12
TK-10 = system: TK-10
MOLT-4 = system: MOLT-4
HOP-62 = system: HOP-62
UACC-257 = system: UACC-257
786-0 = system: 786-0
HCT-116 = system: HCT-116
IGROV-1 = system: IGROV-1
SF-539 = system: SF-539
SW-620 = system: SW-620
HOP-92 = system: HOP-92
MDA-MB-231 = system: MDA-MB-231
MDA-MB-435 = system: MDA-MB-435

SMILES | GI50 (LOX IMVI) | GI50 (A498) | GI50 (U-251) | GI50 (HL-60) | GI50 (SR) | GI50 (HCT-15) [µM] | GI50 (SNB-75) | GI50 (KM12) | GI50 (TK-10) | GI50 (MOLT-4) | GI50 (HOP-62) | GI50 (UACC-257) | GI50 (786-0) | GI50 (HCT-116) | GI50 (IGROV-1) | GI50 (SF-539) | GI50 (SW-620) | GI50 (HOP-92) | GI50 (MDA-MB-231) | GI50 (MDA-MB-435)
C/C(CC(=O)Nc1ccc(NC(=O)C/C(C)=N\NC(N)=O)cc1)=N/NC(N)=O | > 42.5 µM (inactive) | > 100 µM (inactive) | > 78 µM (inactive) | > 61.7 µM (inactive) | 38.5 µM (inactive) | > 42.3 | > 93.5 µM (inactive) | > 100 µM (inactive) | > 68.7 µM (inactive) | 47.2 µM (inactive) | > 100 µM (inactive) | > 100 µM (inactive) | > 68.9 µM (inactive) | > 68.9 µM (inactive) | > 100 µM (inactive) | > 100 µM (inactive) | > 100 µM (inactive) | 71.1 µM (inactive) | – | –
CC1=C(c2cc(C(=O)Nc3nccs3)nc(NC#N)n2)Sc2ccccc2N1 | – | > 100 µM (inactive) | > 100 µM (inactive) | > 100 µM (inactive) | > 100 µM (inactive) | 65.3 | 87.3 µM (inactive) | > 100 µM (inactive) | > 100 µM (inactive) | > 100 µM (inactive) | > 100 µM (inactive) | > 100 µM (inactive) | > 100 µM (inactive) | > 100 µM (inactive) | > 100 µM (inactive) | > 100 µM (inactive) | > 100 µM (inactive) | > 100 µM (inactive) | – | –
CC1OC(n2cc(I)c(=O)[nH]c2=O)C=CC1=O (stereo not given) | 6.47 µM (inactive) | 16.1 µM (inactive) | 14.4 µM (inactive) | 6.82 µM (inactive) | 12.6 µM (inactive) | 17.1 | 17.2 µM (inactive) | 13 µM (inactive) | 18.6 µM (inactive) | 14.1 µM (inactive) | 18.5 µM (inactive) | 14.7 µM (inactive) | 14 µM (inactive) | 11.8 µM (inactive) | 20.4 µM (inactive) | 14.1 µM (inactive) | 13.2 µM (inactive) | 19.7 µM (inactive) | – | –
O=c1cc(-c2ccncc2)[nH]c2cc3c(cc12)OCO3 | – | > 100 µM (inactive) | > 100 µM (inactive) | – | – | > 100 | 49.7 µM (inactive) | > 100 µM (inactive) | > 100 µM (inactive) | > 100 µM (inactive) | > 100 µM (inactive) | > 100 µM (inactive) | 64.6 µM (inactive) | 97.3 µM (inactive) | > 100 µM (inactive) | > 100 µM (inactive) | > 100 µM (inactive) | > 100 µM (inactive) | > 100 µM (inactive) | > 100 µM (inactive)
COC1OC(CBr)C(OC(=O)c2ccccc2)C(O)C1Br (stereo not given) | > 100 µM (inactive) | > 100 µM (inactive) | > 100 µM (inactive) | > 100 µM (inactive) | > 100 µM (inactive) | > 100 | – | > 100 µM (inactive) | > 100 µM (inactive) | > 100 µM (inactive) | > 100 µM (inactive) | > 10 µM (inactive) | > 100 µM (inactive) | > 100 µM (inactive) | > 10 µM (inactive) | > 100 µM (inactive) | > 100 µM (inactive) | > 100 µM (inactive) | – | –
Cc1ccc(C(=O)O)c(/C=C2\Cc3cc(C)cc(C)c3C2=O)c1 | 72.3 µM (inactive) | 81.1 µM (inactive) | 78.5 µM (inactive) | 38.6 µM (inactive) | 46 µM (inactive) | 53.1 | 63.5 µM (inactive) | 65.2 µM (inactive) | > 100 µM (inactive) | 53.2 µM (inactive) | > 100 µM (inactive) | 90.6 µM (inactive) | > 100 µM (inactive) | 53.7 µM (inactive) | > 100 µM (inactive) | 75.9 µM (inactive) | > 100 µM (inactive) | – | 41.3 µM (inactive) | –
c1ccc(-c2sc(-c3ccccc3)c3c2C(c2ccccc2)c2c(-c4ccccc4)sc(-c4ccccc4)c2C3c2ccccc2)cc1 (stereo not given) | > 100 µM (inactive) | > 100 µM (inactive) | > 100 µM (inactive) | > 100 µM (inactive) | > 100 µM (inactive) | > 100 | > 100 µM (inactive) | > 100 µM (inactive) | > 100 µM (inactive) | – | > 100 µM (inactive) | > 100 µM (inactive) | > 100 µM (inactive) | > 100 µM (inactive) | > 100 µM (inactive) | > 100 µM (inactive) | > 100 µM (inactive) | > 100 µM (inactive) | – | –
CCCCCCCC(=O)N1C2CC3CCC2(CS1(=O)=O)C3(C)C (stereo not given) | – | 76.9 µM (inactive) | 31.3 µM (inactive) | 20 µM (inactive) | 18.6 µM (inactive) | 13.1 | 24.7 µM (inactive) | 26.2 µM (inactive) | 33.6 µM (inactive) | 17.3 µM (inactive) | 20.8 µM (inactive) | 24.5 µM (inactive) | 15.7 µM (inactive) | 30.1 µM (inactive) | 43.2 µM (inactive) | 16.9 µM (inactive) | 23.3 µM (inactive) | 20.6 µM (inactive) | – | 31.4 µM (inactive)
CC1(c2ccccc2)CC(c2ccccc2)=NO1 (stereo not given) | – | > 100 µM (inactive) | > 100 µM (inactive) | > 100 µM (inactive) | > 100 µM (inactive) | > 100 | > 100 µM (inactive) | > 100 µM (inactive) | > 100 µM (inactive) | > 100 µM (inactive) | > 100 µM (inactive) | > 100 µM (inactive) | > 100 µM (inactive) | > 100 µM (inactive) | > 100 µM (inactive) | > 100 µM (inactive) | > 100 µM (inactive) | > 100 µM (inactive) | – | –
COC(=O)[C@H](Cc1ccccc1)NC(=O)N1CCCN(C(=O)N[C@@H](Cc2ccccc2)C(=O)OC)CCCN(C(=O)N[C@@H](Cc2ccccc2)C(=O)OC)CCC1 | 15.3 µM (inactive) | 19.9 µM (inactive) | 16.7 µM (inactive) | 32.8 µM (inactive) | – | 27.8 | 16.1 µM (inactive) | 28.9 µM (inactive) | 22.3 µM (inactive) | 17.7 µM (inactive) | 16.6 µM (inactive) | 18.2 µM (inactive) | 17.5 µM (inactive) | 20.2 µM (inactive) | 16.4 µM (inactive) | – | 19.5 µM (inactive) | 16 µM (inactive) | – | 20.6 µM (inactive)
Cc1cccc(C)c1N1C(=O)C(=O)C(c2nc3ccccc3s2)/C(=N/NC(=O)NN)C1=O (stereo not given) | – | > 100 µM (inactive) | > 100 µM (inactive) | > 100 µM (inactive) | > 100 µM (inactive) | > 100 | > 100 µM (inactive) | > 100 µM (inactive) | > 100 µM (inactive) | > 100 µM (inactive) | > 100 µM (inactive) | > 100 µM (inactive) | > 100 µM (inactive) | > 100 µM (inactive) | > 100 µM (inactive) | > 100 µM (inactive) | > 100 µM (inactive) | > 100 µM (inactive) | – | –
Cn1c(=O)c2c3oc(=O)cc(O)c3c(=O)n3c4ccccc4n(c1=O)c23 | 15.8 µM (inactive) | 23.9 µM (inactive) | 41.4 µM (inactive) | 21.1 µM (inactive) | 20.4 µM (inactive) | 27.8 | 32.2 µM (inactive) | 35.6 µM (inactive) | > 100 µM (inactive) | 33.3 µM (inactive) | > 100 µM (inactive) | 26.1 µM (inactive) | 33.3 µM (inactive) | 32.8 µM (inactive) | 44.2 µM (inactive) | 47.6 µM (inactive) | 40.5 µM (inactive) | 33.2 µM (inactive) | – | –
COC(=O)C1=CC2C(=O)OC1C1C(=O)NC(=O)C21 (stereo not given) | > 100 µM (inactive) | > 100 µM (inactive) | > 100 µM (inactive) | > 100 µM (inactive) | > 100 µM (inactive) | – | 74.6 µM (inactive) | > 100 µM (inactive) | > 100 µM (inactive) | > 100 µM (inactive) | > 100 µM (inactive) | > 100 µM (inactive) | > 100 µM (inactive) | > 100 µM (inactive) | > 100 µM (inactive) | > 100 µM (inactive) | > 100 µM (inactive) | > 100 µM (inactive) | – | –
CCCCCCCCCCCCNC(=S)OCCCC | 15.8 µM (inactive) | > 100 µM (inactive) | 63.7 µM (inactive) | 16.4 µM (inactive) | 30.1 µM (inactive) | > 100 | > 100 µM (inactive) | 28 µM (inactive) | 19.7 µM (inactive) | 17.9 µM (inactive) | > 100 µM (inactive) | 35.7 µM (inactive) | > 100 µM (inactive) | 50.7 µM (inactive) | > 100 µM (inactive) | > 100 µM (inactive) | > 100 µM (inactive) | > 100 µM (inactive) | – | –
O=[N+]([O-])C1C2C=CC(C2)[C@H]1c1ccccc1Cl (stereo not given in full) | > 100 µM (inactive) | > 89.9 µM (inactive) | > 87.9 µM (inactive) | 29.9 µM (inactive) | 47.9 µM (inactive) | > 96.6 | 20.5 µM (inactive) | > 100 µM (inactive) | > 100 µM (inactive) | 57 µM (inactive) | > 10 µM (inactive) | 67 µM (inactive) | > 100 µM (inactive) | > 89.9 µM (inactive) | > 31.6 µM (inactive) | > 100 µM (inactive) | > 100 µM (inactive) | 24 µM (inactive) | – | –
N#C/C(=C\c1ccc(O)c(O)c1)C(N)=S [TYRPHOSTIN 47] | > 88.9 µM (inactive) | > 100 µM (inactive) | 70.5 µM (inactive) | 10.1 µM (inactive) | 36.1 µM (inactive) | 53.5 | 7.36 µM (inactive) | 68.2 µM (inactive) | > 100 µM (inactive) | 32.7 µM (inactive) | > 100 µM (inactive) | > 54.7 µM (inactive) | 56.6 µM (inactive) | 50.2 µM (inactive) | > 100 µM (inactive) | > 94.4 µM (inactive) | 79.1 µM (inactive) | > 58.3 µM (inactive) | – | –
